Test results: ChEMBL document CHEMBL4346723, “Targeting tropomyosin receptor kinase for cancer therapy” (Eur J Med Chem, 2019)

Legend:
[1] = target: T1, High affinity nerve growth factor receptor (Homo sapiens, UniProt P04629); test: Inhibition of recombinant N- terminal GST-tagged human NTRK1 expressed in baculovirus infected Sf9 cells using Poly(Glu:Tyr) as substrate after 45 mins
NTRK1/NTRK2 = NTRK1/NTRK2 (Homo sapiens, UniProt P04629+Q16620); test: Inhibition of TRKA/TRKB (unknown origin); assay type: protein assay
K562 = test: Growth inhibition of human K562 cells; assay type: functional, cell-based
[2] = target: T2, BDNF/NT-3 growth factors receptor (Homo sapiens, UniProt Q16620); test: Inhibition of TRKB (unknown origin)
KM12 = test: cells; conditions: Homo sapiens
Description: Growth inhibition of human KM12 cells

[3] = target: T1, High affinity nerve growth factor receptor; test: Inhibition TRKA (unknown origin)
[4] = target: T1, High affinity nerve growth factor receptor; test: Inhibition of human TRKA expressed in human AD293 cells assessed as reduction in TrkA phosphorylation at Tyr490 residues preincubated for 20 mins followed by NGF-stimulation measure after 5 mins by ELISA; assay type: cell-based
[5] = target: T3, Tyrosine-protein kinase JAK2 (Homo sapiens, UniProt O60674); test: Inhibition of recombinant C-terminal His6-tagged human JAK2 (808 to end residues) expressed in baculovirus infected SF21 insect cells at 3 uM using Tyr 1054/1055 biotinylated peptide as substrate after 60 mins by Alphascreen assay relative to control
[6] = target: T1, High affinity nerve growth factor receptor; test: Inhibition TRKA (unknown origin) by cell based assay
[7] = target: T1, High affinity nerve growth factor receptor; test: Inhibition of recombinant full length human TRKA expressed in U2OS cells using Poly(Glu:Tyr) as substrate after 30 mins by scintillation counting assay
[8] = Tmax in cancer patient at 100 mg, twice daily; assay type: ADME; conditions: human, in vivo
[9] = Cmax in cancer patient at 100 mg, twice daily; assay type: ADME; parameters: dose 100 mg; conditions: human, in vivo
[10] = Apparent oral clearance in healthy volunteer at 100 mg, twice daily; conditions: human, in vivo
[11] = Half life in healthy volunteer at 100 mg, twice daily; conditions: human, in vivo
[12] = Volume of distribution at steady state in healthy volunteer at 100 mg, twice daily; conditions: human, in vivo, read-out: Vdss
[13] = Oral bioavailability in healthy volunteer at 100 mg, twice daily; conditions: human, in vivo
[14] = AUC (0 to 24 hrs) in cancer patient at 100 mg, twice daily; assay type: ADME; parameters: dose 100 mg, time < 24 hr; conditions: human, in vivo
[15] = Inhibition of TRK (unknown origin); parameters: species or system Homo sapiens
SK-OV-3 = test: Cytotoxicity against human SKOV3 cells after 24 to 72 hrs by MTT assay; assay type: functional, cell-based
OVCAR-3 = test: Cytotoxicity against human OVCAR3 cells after 24 to 72 hrs by MTT assay; assay type: functional, cell-based
[16] = target: Tyrosine-protein kinase BTK (Homo sapiens, UniProt Q06187); test: Inhibition of BTK (unknown origin)
[17] = target: T3, Tyrosine-protein kinase JAK2; test: Inhibition of recombinant C-terminal His6-tagged human JAK2 (808 to end residues) expressed in baculovirus infected SF21 insect cells using Tyr 1054/1055 biotinylated peptide as substrate after 60 mins by Alphascreen assay
[18] = target: T1, High affinity nerve growth factor receptor; test: Inhibition of TRKA (unknown origin) using poly GT as substrate preincubated for 30 mins followed by substrate addition measured after 30 mins by TR-FRET Assay
[19] = target: T2, BDNF/NT-3 growth factors receptor; test: Inhibition of N- terminal GST-tagged human TRKB cytoplasmic domain (456 to 822 end residues) expressed in baculovirus expression system using TK peptide as substrate after 60 mins by HTRF assay
[20] = target: NT-3 growth factor receptor (Homo sapiens, UniProt Q16288); test: Inhibition of N- terminal GST-tagged human TRKC catalytic domain (456 to 825 end residues) expressed in baculovirus expression system using TK peptide as substrate after 60 mins by HTRF assay
[21] = target: T1, High affinity nerve growth factor receptor; test: Inhibition of N- terminal GST-tagged human TRKA cytoplasmic domain (436 to 790 end residues) using TK peptide as substrate after 60 mins by HTRF assay
[22] = target: T3, Tyrosine-protein kinase JAK2; test: Inhibition of N-terminal His-tagged human JAK2 catalytic domain (826 to 1132 end residues) expressed in baculovirus expression system using TK peptide as substrate after 120 mins by HTRF assay
[23] = target: T1, High affinity nerve growth factor receptor; test: Inhibition of recombinant His-tagged human TRKA cytoplasmic domain (441 to 796 residues) expressed in baculovirus expression system using biotin labelled TK peptide preincubated for 20 mins followed by substrate addition by HTRF assay

T3 sequence (O60674 whole entry): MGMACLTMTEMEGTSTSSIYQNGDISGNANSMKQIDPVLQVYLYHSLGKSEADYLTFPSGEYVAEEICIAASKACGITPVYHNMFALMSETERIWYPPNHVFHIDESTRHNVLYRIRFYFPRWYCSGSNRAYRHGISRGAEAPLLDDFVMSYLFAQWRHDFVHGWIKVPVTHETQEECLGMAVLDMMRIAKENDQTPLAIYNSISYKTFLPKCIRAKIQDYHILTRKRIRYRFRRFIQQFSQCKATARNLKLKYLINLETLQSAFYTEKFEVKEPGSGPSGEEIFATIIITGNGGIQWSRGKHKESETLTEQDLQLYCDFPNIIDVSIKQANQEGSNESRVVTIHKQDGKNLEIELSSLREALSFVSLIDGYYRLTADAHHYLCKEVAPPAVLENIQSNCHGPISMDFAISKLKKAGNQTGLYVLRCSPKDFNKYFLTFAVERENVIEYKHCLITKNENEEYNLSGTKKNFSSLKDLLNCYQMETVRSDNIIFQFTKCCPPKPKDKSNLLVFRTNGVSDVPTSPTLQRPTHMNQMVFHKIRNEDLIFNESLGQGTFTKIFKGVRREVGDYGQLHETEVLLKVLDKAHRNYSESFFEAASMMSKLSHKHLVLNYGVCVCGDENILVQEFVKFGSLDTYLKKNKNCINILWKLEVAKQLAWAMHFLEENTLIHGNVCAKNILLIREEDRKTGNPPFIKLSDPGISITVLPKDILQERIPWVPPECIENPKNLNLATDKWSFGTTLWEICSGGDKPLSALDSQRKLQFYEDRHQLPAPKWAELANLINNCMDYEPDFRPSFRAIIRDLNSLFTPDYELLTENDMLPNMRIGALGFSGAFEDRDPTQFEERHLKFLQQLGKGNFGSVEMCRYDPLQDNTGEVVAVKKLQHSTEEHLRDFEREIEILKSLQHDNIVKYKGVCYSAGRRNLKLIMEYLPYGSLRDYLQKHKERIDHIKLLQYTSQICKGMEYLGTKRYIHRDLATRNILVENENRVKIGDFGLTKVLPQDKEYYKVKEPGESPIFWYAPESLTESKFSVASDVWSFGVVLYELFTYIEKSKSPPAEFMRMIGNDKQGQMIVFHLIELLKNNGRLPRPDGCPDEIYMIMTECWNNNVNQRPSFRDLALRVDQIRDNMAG
T1 sequence (P04629 whole entry): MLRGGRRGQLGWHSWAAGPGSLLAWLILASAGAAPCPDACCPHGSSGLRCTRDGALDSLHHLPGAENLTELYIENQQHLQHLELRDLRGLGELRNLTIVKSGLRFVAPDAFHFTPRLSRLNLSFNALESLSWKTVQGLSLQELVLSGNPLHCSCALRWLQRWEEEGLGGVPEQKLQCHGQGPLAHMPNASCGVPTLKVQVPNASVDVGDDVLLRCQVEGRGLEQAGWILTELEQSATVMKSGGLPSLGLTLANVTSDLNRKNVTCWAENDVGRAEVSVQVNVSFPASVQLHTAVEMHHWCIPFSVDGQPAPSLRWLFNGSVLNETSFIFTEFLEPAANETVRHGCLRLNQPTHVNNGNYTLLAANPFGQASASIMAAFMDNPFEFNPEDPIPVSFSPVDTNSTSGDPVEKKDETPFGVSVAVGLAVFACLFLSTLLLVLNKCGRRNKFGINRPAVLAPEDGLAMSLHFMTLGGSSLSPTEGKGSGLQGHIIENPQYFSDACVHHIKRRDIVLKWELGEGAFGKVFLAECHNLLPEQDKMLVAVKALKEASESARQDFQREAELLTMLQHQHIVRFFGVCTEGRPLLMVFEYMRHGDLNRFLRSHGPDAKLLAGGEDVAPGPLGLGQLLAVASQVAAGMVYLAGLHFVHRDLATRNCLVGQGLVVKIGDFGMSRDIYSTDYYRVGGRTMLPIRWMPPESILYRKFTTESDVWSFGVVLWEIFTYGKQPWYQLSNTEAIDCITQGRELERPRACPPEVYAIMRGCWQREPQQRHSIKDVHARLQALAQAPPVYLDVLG
T2 sequence (Q16620 whole entry): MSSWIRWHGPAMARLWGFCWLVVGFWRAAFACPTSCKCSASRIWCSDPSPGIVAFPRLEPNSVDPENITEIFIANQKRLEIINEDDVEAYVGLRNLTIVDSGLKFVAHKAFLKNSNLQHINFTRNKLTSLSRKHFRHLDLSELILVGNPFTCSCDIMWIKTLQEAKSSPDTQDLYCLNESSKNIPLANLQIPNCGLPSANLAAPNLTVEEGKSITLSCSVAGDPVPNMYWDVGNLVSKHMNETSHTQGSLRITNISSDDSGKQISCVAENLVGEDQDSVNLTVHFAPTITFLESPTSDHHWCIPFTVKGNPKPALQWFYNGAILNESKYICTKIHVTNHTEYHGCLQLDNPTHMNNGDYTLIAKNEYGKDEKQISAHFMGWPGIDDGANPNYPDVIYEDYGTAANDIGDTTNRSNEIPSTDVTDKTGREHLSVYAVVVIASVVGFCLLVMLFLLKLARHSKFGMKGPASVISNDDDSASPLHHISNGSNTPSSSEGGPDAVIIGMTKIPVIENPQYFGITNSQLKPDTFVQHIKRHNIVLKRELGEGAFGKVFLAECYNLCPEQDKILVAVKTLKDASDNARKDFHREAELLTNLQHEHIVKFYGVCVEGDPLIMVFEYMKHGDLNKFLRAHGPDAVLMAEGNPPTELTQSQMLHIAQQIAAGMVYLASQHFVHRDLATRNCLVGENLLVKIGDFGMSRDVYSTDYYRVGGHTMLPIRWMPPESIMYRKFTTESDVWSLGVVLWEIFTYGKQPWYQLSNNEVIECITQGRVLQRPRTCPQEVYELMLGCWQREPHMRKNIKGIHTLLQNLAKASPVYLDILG
Tyrosine-protein kinase BTK, sequence (Q06187 whole entry): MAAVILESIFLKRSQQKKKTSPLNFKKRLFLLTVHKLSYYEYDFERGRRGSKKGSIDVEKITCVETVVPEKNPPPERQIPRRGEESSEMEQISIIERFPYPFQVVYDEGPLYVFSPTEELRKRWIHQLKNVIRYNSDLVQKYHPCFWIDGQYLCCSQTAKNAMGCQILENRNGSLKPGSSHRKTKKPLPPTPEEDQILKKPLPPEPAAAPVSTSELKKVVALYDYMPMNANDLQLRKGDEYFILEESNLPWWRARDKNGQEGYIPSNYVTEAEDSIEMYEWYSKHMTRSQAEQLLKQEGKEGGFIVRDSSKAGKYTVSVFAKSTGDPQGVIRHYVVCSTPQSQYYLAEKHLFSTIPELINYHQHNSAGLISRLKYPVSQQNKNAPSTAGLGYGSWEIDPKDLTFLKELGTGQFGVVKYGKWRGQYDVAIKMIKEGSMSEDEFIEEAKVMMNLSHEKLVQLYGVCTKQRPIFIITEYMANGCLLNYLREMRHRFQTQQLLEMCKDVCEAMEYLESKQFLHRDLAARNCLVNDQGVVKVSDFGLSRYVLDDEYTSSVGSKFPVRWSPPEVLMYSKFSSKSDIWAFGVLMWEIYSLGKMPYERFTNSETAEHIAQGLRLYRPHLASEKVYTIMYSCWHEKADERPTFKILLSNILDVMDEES
NT-3 growth factor receptor, sequence (Q16288 whole entry, the tested form may be a part): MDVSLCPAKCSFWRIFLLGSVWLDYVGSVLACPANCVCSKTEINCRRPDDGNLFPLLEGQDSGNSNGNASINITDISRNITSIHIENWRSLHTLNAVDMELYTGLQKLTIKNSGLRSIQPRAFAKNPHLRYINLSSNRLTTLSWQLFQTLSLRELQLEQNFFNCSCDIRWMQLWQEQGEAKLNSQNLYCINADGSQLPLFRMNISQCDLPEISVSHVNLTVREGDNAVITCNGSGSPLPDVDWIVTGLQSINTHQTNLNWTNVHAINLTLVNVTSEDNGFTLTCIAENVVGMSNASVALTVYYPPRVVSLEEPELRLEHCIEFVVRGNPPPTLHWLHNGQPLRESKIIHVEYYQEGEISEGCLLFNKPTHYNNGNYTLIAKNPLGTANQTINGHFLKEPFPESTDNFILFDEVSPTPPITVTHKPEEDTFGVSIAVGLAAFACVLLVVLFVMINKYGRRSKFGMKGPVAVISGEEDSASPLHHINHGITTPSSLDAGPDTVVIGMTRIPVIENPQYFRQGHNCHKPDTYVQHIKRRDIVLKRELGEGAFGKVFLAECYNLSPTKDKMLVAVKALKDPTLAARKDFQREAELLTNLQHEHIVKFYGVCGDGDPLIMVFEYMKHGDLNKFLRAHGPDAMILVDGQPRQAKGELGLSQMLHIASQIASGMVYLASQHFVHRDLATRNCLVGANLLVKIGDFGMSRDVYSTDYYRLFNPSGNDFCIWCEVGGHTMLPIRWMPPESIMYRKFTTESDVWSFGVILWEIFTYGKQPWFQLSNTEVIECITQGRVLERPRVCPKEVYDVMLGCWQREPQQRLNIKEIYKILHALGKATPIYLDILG

Work on CC(C)c1nnc(-c2cnn3ccc(N4CCCC4c4cc(F)ccc4F)nc23)o1 (stereo not drawn) yielded an IC50 [1] of under 10 nM.

CC(C)c1cc(C(=O)c2cccc(NC(=O)Nc3ccc4ccccc4c3)c2)c2c(N)ncnn12 showed an IC50 (NTRK1/NTRK2) of under 1 nM.

For CCN1CCN(Cc2ccc(NC(=O)Nc3nc4ccc(Oc5ccnc(C(=O)NC)c5)cc4s3)cc2C(F)(F)F)CC1, the GI50 (K562) was 51.4 nM, the IC50 [2] was 4.42 nM and the IC50 (KM12) was 19 nM. For the same molecule, the IC50 [3] was 3.81 nM.

In the case of COCCN1C[C@@H](NC(=O)Nc2cc3cc(OC)c(OC)cc3nc2-c2ccccc2)[C@H](c2ccccc2)C1, the IC50 [4] is reported as under 100 nM.

In the case of Cc1cc(Nc2cncc(N[C@@H](C)c3ccc(F)cc3)n2)n[nH]1, the inhibition [5] is reported as 100%.

Work on COCCN1C[C@@H](NC(=O)Nc2c(C)c(-c3cnn(C)c3)nn2-c2ccccc2)[C@H](c2ccccc2)C1 yielded an IC50 [6] of 6.1 nM and an IC50 [7] of 1.7 nM.

In the case of O=C(Nc1cnn2ccc(N3CCC[C@@H]3c3cc(F)ccc3F)nc12)N1CC[C@H](O)C1.O=S(=O)(O)O [LAROTRECTINIB SULFATE], the Tmax [8] is reported as 1 h, the Cmax [9] is reported as 788 ng/mL and the CL/F [10] is reported as 98 L/h. For the same molecule, the half-life [11] was 2.9 h, the Vd [12] was 48 L and the bioavailability [13] was 32 to 37%. It also gave an AUC [14] of 4351 ng·h/mL, an IC50 [15] of 2 to 20 nM and an IC50 (KM12) of 1.9 nM.

For H-TGLDSDGLYQN-OH, the IC50 (SK-OV-3) was 200 nM and the IC50 (OVCAR-3) was 200 nM.

Work on CC(C)N1Cc2cc(c(F)cc2F)OCCCNC(=O)c2cnn3ccc1nc23 yielded an IC50 [2] of 5000 nM, an IC50 [7] of 0.2 nM and an IC50 [16] of 9.67 nM.

Work on Cc1cc(Nc2cnc(C#N)c(N[C@@H](C)c3ccc(F)cc3)n2)n[nH]1 yielded an IC50 [17] of 33 nM.

For COc1ccc2nc(N[C@@H](CO)c3ccc(F)cc3)nc(Nc3cc(C4CC4)[nH]n3)c2c1, the IC50 [15] was 87 nM.

C[C@H](Nc1nc(Nc2cc(C3CC3)[nH]n2)c(Cl)cc1Cl)c1ccc(F)cc1 showed an IC50 [15] of 109 nM.

In the case of O=C(c1cnc2ccc(N3CCCC3c3cc(F)ccc3F)cn12)N1CC[C@H](O)C1 (stereo partly drawn), the IC50 [18] is reported as under 50 nM.

Work on O=C(Nc1c(-c2ccccc2)nc2ccccn12)NC1c2ccccc2-c2ccccc21 yielded an IC50 [7] of 28 to 30 nM.

Molecule CC(C)(O)c1ccc2nc(-c3ccccc3)c(NC(=O)c3cc(-c4ncccn4)c(C(F)(F)F)cc3F)n2c1 has an IC50 [7] of 0.89 nM.

CC(C)(C)c1nnc(-c2cnn3ccc(N4CCCC4c4cc(F)ccc4F)nc23)o1 (stereo not drawn) showed an IC50 [1] of under 10 nM.

Cc1nc(-c2ccccc2)c(NC(=O)Nc2cnc3ccccn23)s1 gave an IC50 [7] of 48 nM.

For C[C@H](Nc1ccc([N+](=O)[O-])c(Nc2cc(C3CC3)[nH]n2)n1)c1ccc(F)cc1, the IC50 [15] was 63 nM.

COCCN1C[C@@H](NC(=O)Nc2c(C)c(-c3ccnc(C)n3)nn2-c2ccccc2)[C@H](c2cccc(F)c2)C1 showed an IC50 [6] of 1.9 nM and an IC50 [7] of 1.1 nM.

For CC(C)c1nnc(-c2cnn3ccc(N4CCCC4c4cc(F)ccc4F)nc23)s1 (stereo not drawn), the IC50 [1] was under 10 nM.

Molecule O=C(Nc1ccc(F)cc1)c1cnc2ccc(N3CCCC3c3cc(F)ccc3F)cn12 (stereo not drawn) has an IC50 [18] of under 50 nM.

For C[C@H](Nc1cc(Nc2cc(C3CC3)[nH]n2)c([N+](=O)[O-])cc1F)c1ccc(F)cc1, the IC50 [15] was 426 nM.

Work on CC(C)c1cc(C(=O)c2cccc(NC(=O)Nc3ccccc3)c2)c2c(N)ncnn12 yielded an IC50 (NTRK1/NTRK2) of under 1 nM.

Work on C[C@H](Nc1ncc(Br)c(Nc2cc(C3CC3)[nH]n2)n1)c1ccc(F)cn1 yielded an IC50 [15] of 5 nM.

In the case of C[C@@H]1CCc2ncc(F)cc2[C@H]2CCCN2c2ccn3ncc(c3n2)C(=O)N1 [SELITRECTINIB], the IC50 [15] is reported as over 1000 nM.

Molecule Nc1nn2cc(N3CCC[C@@H]3c3cc(F)ccc3F)cnc2c1C(=O)Nc1ccc(F)cc1 has an IC50 [19] of under 10 nM, an IC50 [20] of under 10 nM and an IC50 [21] of under 1 nM. For the same molecule, the IC50 [22] was over 500 nM.

In the case of O=C(Nc1cccnc1-c1ccccc1)NC1c2ccccc2-c2ccccc21, the IC50 [7] is reported as 27 to 30 nM.

In the case of Nc1cc(CNC(=O)c2cc(NC(=O)c3cc(-c4cccc(F)n4)c(Cl)cc3Cl)n(-c3ccccc3)n2)ccn1, the IC50 [23] is reported as 1.02 nM.

Work on N#Cc1cc([N+](=O)[O-])c(Nc2cc(C3CC3)[nH]n2)cc1N[C@@H](CO)c1ccc(F)cc1 yielded an IC50 [15] of 859 nM.
